Earlier results in patent US5389382A, “Hydrosols of pharmacologically active agents and their pharmaceutical compositions comprising them” (Sandoz Ltd., priority 1986, dated 1995).

Details: at room temperature

water solubility: below 0.1 g/100 ml
Structure (SMILES): Cc1ccc2c(-c3ccccc3)nc(=O)n(C(C)C)c2c1 [Proquazone, 1-isopropyl-7-methyl-4-phenyl-2(1H)-quinazolone]
